Several values for one entry are separate records, joined by “and”; a condition that tells them apart may be missing. Equal entries are not always repeated.
Experiments:
[1] = system: stimulated LTB4 synthesis; assay: Stimulated LTB4 synthesis ex vivo after administration to rabbits of 10 mg/kg PO; assay type: in vivo
Procedure: B. Time for stimulated LTB4 synthesis ex vivo to return to 50% of original value after administration to rabbits of 10 mg/kg PO

[2] = biological target: T1, 5-lipoxygenase (5-LO) (Homo sapiens, UniProt P09917); assay: In vitro inhibition of 5-lipoxygenase in homogenised leukocytes (LTB4 radioimmunoassay); assay type: biochemical; settings: homogenised leukocytes of aspirin-free volunteers, 5 μM arachidonic acid, 37° C., 5 minutes
T1 construct: The leukocytes were homogenised and 5 μM arachidonic acid added; from tissue; host or cells: homogenised blood leukocytes of normal aspirin-free volunteers
T1 sequence (P09917 1-674): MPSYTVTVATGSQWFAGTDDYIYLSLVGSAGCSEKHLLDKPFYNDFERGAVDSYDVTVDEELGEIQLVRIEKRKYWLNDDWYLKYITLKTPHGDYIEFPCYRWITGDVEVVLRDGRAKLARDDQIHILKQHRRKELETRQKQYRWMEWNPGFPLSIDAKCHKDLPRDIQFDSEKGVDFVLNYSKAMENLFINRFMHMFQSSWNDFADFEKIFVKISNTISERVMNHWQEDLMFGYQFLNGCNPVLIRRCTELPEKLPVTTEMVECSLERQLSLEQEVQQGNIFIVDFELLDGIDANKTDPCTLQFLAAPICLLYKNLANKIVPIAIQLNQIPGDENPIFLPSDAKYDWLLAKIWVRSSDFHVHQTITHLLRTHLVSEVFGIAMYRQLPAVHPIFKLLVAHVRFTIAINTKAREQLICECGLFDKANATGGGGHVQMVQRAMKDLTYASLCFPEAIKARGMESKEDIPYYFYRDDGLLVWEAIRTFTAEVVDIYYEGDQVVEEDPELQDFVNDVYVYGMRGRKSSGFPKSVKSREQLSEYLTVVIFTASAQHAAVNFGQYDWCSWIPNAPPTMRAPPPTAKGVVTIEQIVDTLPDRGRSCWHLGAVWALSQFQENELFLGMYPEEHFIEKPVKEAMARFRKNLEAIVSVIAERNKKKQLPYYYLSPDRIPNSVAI
Procedure: (§1) C. In vitro inhibition of 5-lipoxygenase (5-LO) and cyclo-oxygenase (CO) Blood from normal aspirin-free volunteers was centrifuged to separate leukocytes from red cells and platelets. The leukocytes were homogenised and 5 μM arachidonic acid added, followed by incubation at 37° C. for 5 minutes. The reaction was stopped by boiling and radioimmunoassays conducted for LTB4 and TXB2. Results were calculated as IC50 (μM) activity against each enzyme.

[3] = Plasma concentration after administration to rabbits of 10 mg/kg PO; assay type: in vivo; settings: rabbit; for Cmax: read-out: Maximum plasma concentration; for half-life: read-out: time for plasma concentration to fall to 50% of maximum value obtained after administration (converted)
Procedure: A. Maximum plasma concentration obtained after administration to rabbits of 10 mg/kg PO and time for plasma concentration to fall to 50% of maximum value obtained after administration

[4] = biological target: T2, cyclo-oxygenase (CO) (Homo sapiens, UniProt P23219); assay: In vitro inhibition of cyclo-oxygenase in homogenised leukocytes (TXB2 radioimmunoassay); assay type: biochemical; settings: homogenised leukocytes of aspirin-free volunteers, 5 μM arachidonic acid, 37° C., 5 minutes
T2 construct: The leukocytes were homogenised and 5 μM arachidonic acid added; from tissue; host or cells: homogenised blood leukocytes of normal aspirin-free volunteers
Procedure: as §1

T2 sequence (P23219 24-599): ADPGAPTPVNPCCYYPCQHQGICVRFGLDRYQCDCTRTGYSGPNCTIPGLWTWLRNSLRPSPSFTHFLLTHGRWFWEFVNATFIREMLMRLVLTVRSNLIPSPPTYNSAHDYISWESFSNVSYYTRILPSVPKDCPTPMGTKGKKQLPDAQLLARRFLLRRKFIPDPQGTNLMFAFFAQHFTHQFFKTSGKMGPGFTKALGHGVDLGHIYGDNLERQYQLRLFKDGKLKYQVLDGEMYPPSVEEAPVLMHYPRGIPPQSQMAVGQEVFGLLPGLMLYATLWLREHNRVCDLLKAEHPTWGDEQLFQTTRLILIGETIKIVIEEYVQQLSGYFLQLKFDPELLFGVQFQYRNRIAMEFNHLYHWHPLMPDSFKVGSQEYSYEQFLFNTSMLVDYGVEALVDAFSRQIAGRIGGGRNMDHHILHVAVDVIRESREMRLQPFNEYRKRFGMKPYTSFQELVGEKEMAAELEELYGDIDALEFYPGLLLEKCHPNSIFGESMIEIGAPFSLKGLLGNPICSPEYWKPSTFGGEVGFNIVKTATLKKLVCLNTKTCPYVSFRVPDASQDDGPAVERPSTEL

Row | SMILES | Time for stimulated LTB4 synthesis ex vivo to return to 50% of original value [1] [h] | IC50 [2] | Cmax [3] [ng/mL] | half-life [3] [h] | IC50 [4] [nM]
1 | CC(=O)N(O)C(C)/C=C/c1cccc(Oc2ccccc2)c1 (stereo not drawn) [(E)-N-[1-methyl-3-(3-phenoxyphenyl)prop-2-enyl]acetohydroxamic acid] | 22.6 | 80 nM | 460 | 10.7 | 1000
2 | CC(=O)N(O)C/C=C/c1cccc(Oc2ccccc2)c1 [(E)-N-[3-(3-phenoxyphenyl)prop-2-enyl]acetohydroxamic acid, reference compound] | – | – | – | – | 1000
3 | CC(=O)N(O)C(C)/C=C/c1cccc(Oc2ccc(F)cc2F)c1 (stereo not drawn) [(E)-N-{1-Methyl-3-[3-(2,4-difluorophenoxy)phenyl]prop-2-enyl}acetohydroxamic acid] | 20.7 | – | – | – | –
4 | CC(=O)N(O)C(C)/C=C/c1cccc(Oc2cc(Cl)cc(Cl)c2)c1 (stereo not drawn) [(E)-N-{1-Methyl-3-[3-(3,5-dichlorophenoxy)phenyl]prop-2-enyl}acetohydroxamic acid] | > 24 | 400 nM | 1900 | > 24 | –
5 | CC(=O)N(O)C(C)/C=C/c1cccc(Oc2cccc(C(F)(F)F)c2)c1 (stereo not drawn) [(E)-N-{1-Methyl-3-[3-(3-trifluoromethylphenoxy)phenyl]prop-2-enyl}acetohydroxamic acid] | > 24 | 110 nM | 840 | > 24 | > 1000
6 | CC(=O)N(O)C(C)/C=C/c1cccc(Oc2ccc(Br)cc2)c1 (stereo not drawn) [(E)-N-{1-Methyl-3-[3-(4-bromophenoxy)phenyl]prop-2-enyl}acetohydroxamic acid] | > 24 | 10 nM | 710 | > 24 | 180
7 | CC(=O)N(O)C(C)/C=C/c1cccc(Oc2ccc(C)cc2)c1 (stereo not drawn) [(E)-N-{1-Methyl-3-[3-(4-methylphenoxy)phenyl]prop-2-enyl}acetohydroxamic acid] | – | – | 70 | 4.3 | –
8 | CC(=O)N(O)C(C)/C=C/c1cccc(Oc2ccc(C(C)(C)C)cc2)c1 (stereo not drawn) [(E)-N-{1-Methyl-3-[3-(4-t-butylphenoxy)phenyl]prop-2-enyl}acetohydroxamic acid] | 2.4 | 500 nM | 160 | > 24 | –
9 | CC(=O)N(O)C(C)/C=C/c1cccc(Oc2ccc(Cl)cc2)c1 (stereo not drawn) [(E)-N-{1-methyl-3-[3-(4-chlorophenoxy)phenyl]prop-2-enyl}acetohydroxamic acid] | > 24 | 80 nM | 930 | > 24 | > 1000
10 | CC(=O)N(O)C(C)/C=C/c1cccc(Oc2ccc(F)cc2)c1 (stereo not drawn) [(E)-N-{1-methyl-3-[3-(4-fluorophenoxy)phenyl]prop-2-enyl}acetohydroxamic acid] | 24.0 | 200 nM and 300 nM | 1070 | 11.3 | –

Reference: US4988733A, “N-[1-(3-phenoxyphenyl)ethyl]acetohydroxamic acid compounds which are useful anti-inflammatory agents” (Burroughs Wellcome Co., priority 1987, dated 1991)
